Assay results reported in patent US20220409727A1, “Metal Complexes Bearing Bisstyryl-Bipyridine Ligand and Their Use as Photosensitizer Agent in One and Two-Photon Photodynamic Therapy” (Paris Sciences et Lettres, priority 2019, published 2022).
Like-named read-outs stand apart in the source and are kept apart here.

Key:
[1] = Luminescence quantum yield measurements; type: physicochemical; parameters: key: fraction, relative to [Ru(bipy)3]Cl2 reference in CH3CN (Φem=5.9%); conditions: CH3CN, room temperature, excitation at 355 nm
Experimental: For the determination of the luminescence quantum yield, the samples were prepared in an CH3CN solution with an absorbance of 0.1 at 355 nm. This solution was irradiated in fluorescence quartz cuvettes (width 1 cm) using a NT342B Nd-YAG pumped optical parametric oscillator (Ekspla) at 355 nm. The emission signal was focused and collected at right angle to the excitation pathway and directed to a Princeton Instruments Acton SP-2300i monochromator. As a detector a XPI-Max 4 CCD camera (Princeton Instruments) has been used. The luminescence quantum yields were determined by comparison with the reference [Ru(bipy)3]Cl2 in CH3CN (Φem=5.9%) (Nakamaru, K., 1982) applying the following formula:
Φem, sample=Φem, reference*(Freference/Fsample)*(Isample/Ireference)*(nsample/nreference)^2
Φem=luminescence quantum yield, F=fraction of light absorbed, I=integrated emission intensities, n=refractive index, A=absorbance of the sample at irradiation wavelength.

[2] = Luminescence lifetime measurements; type: physicochemical; conditions: excitation at 355 nm; for τ/ns air (Lifetime): air saturated CH3CN; for τ/ns degassed (Lifetime): degassed CH3CN
Experimental: For the determination of the lifetimes, the samples were prepared in an air saturated and in a degassed CH3CN solution with an absorbance of 0.2 at 355 nm. This solution was irradiated in fluorescence quartz cuvettes (width 1 cm) using a NT342B Nd-YAG pumped optical parametric oscillator (Ekspla) at 355 nm. The emission signal was focused and collected at right angle to the excitation pathway and directed to a Princeton Instruments Acton SP-2300i monochromator. As a detector a R928 photomultiplier tube (Hamamatsu) has been used.

[3] = Singlet oxygen measurement, indirect evaluation (RNO absorbance); type: physicochemical; conditions: indirect
Experimental: For the measurement in CH3CN: The samples were prepared in an air-saturated CH3CN solution containing the complex with an absorbance of 0.2 at the irradiation wavelength, N,N-dimethyl-4-nitrosoaniline aniline (RNO, 24 μM) and imidazole (12 mM). For the measurement in PBS buffer: The samples were prepared in an air-saturated PBS solution containing the complex with an absorbance of 0.1 at the irradiation wavelength, N,N-dimethyl-4-nitrosoaniline aniline (RNO, 20 μM) and histidine (10 mM). The samples were irradiated on 96 well plates with an Atlas Photonics LUMOS BIO irradiator for different times. The absorbance of the samples was measured during these time intervals with a SpectraMax M2 Microplate Reader (Molecular Devices). The difference in absorbance (A0−A) at 420 nm for the CH3CN solution or at 440 nm a PBS buffer solution was calculated and plotted against the irradiation times. From the plot the slope of the linear regression was calculated as well as the absorbance correction factor determined. The singlet oxygen quantum yields were calculated using the same formulas as used for the direct evaluation.

[4] = test system: human cervical carcinoma (HeLa) cells; test: (Photo-)cytotoxicity on 2D cell monolayers, resazurin assay, HeLa; type: cell-based; conditions: for PI (480 nm): dark vs 480 nm (10 min, 3.1 J/cm^2); for PI (540 nm): dark vs 540 nm (40 min, 9.5 J/cm^2)
Description: Before an experiment, the cells were passaged three times.

[5] = test system: mouse colon carcinoma (CT-26) cells
Experimental: The human glioblastoma astrocytoma (U373) cell line was cultured in MEM medium supplemented with 10% FBS, 1% NEAA (non-essential amino-acids) and 1% penicillin/streptomycin. […] The human retinal epithelial cells (RPE-1, non-cancerous cells immortalized with hTERT) were cultured in DMEM-F12 medium supplemented with 10% FBS and 1% penicillin/streptomycin. All cell lines were obtained from the American Type Culture Collection (ATCC) and cultured at 37° C. and 5% CO2. Before an experiment, the cells were passaged three times.
The cytotoxicity of the compounds was assessed by measuring cell viability using a fluorometric resazurin assay. The cultivated cells were seeded in triplicates in 96 well plates with a density of 4000 cells per well in 100 μL of media. After 24 h, the medium was removed and the cells were treated with increasing concentrations of the compound diluted in cell media achieving a total volume of 200 μL. The cells were incubated with the compound for 4 h. After this time, the media was removed and replaced with 200 μL of fresh medium. For the phototoxicity studies, the cells were exposed to light with an Atlas Photonics LUMOS BIO irradiator. Each well was constantly illuminated with either a 480 nm or 540 nm irradiation. During this time, the temperature was maintained constantly at 37° C. The cells were grown in the incubator for additional 44 h. For the determination of the dark cytotoxicity, the cells were not irradiated and after the medium exchange directly incubated for 44 h. After this time, the medium was replaced with fresh medium containing resazurin with a final concentration of 0.2 mg/mL. After 4 h incubation, the amount of the fluorescent product resorufin was determined upon excitation at 540 nm and measurement its emission at 590 nm using a SpectraMax M2 Microplate Reader (Molecular Devices).
The obtained data was analyzed with the GraphPad Prism software.

[6] = dark, 4 h incubation, compounds 1-3 as chloride salts, read-out: IC50 dark
[7] = read-out: IC50 480 nm (10 min, 3.1 J/cm^2), irradiation 480 nm (10 min, 3.1 J/cm^2), compounds 1-3 as chloride salts
[8] = read-out: IC50 540 nm (40 min, 9.5 J/cm^2), irradiation 540 nm (40 min, 9.5 J/cm^2), compounds 1-3 as chloride salts

With CN(C)c1ccc(/C=C/c2ccnc(-c3cc(/C=C/c4ccc(N(C)C)cc4)ccn3)c2)cc1.CN(C)c1ccc(/C=C/c2ccnc(-c3cc(/C=C/c4ccc(N(C)C)cc4)ccn3)c2)cc1.F[P-](F)(F)(F)(F)F.F[P-](F)(F)(F)(F)F.[Ru+2].c1ccc(-c2ccccn2)nc1 [Compound 4, [Ru(bipy)((E,E′)-4,4′-Bis[p-(N,N-dimethylamino)styryl]-2,2′-bipyridine)2][PF6]2] the “ϕem (Luminescence Quantum Yield)” value [1] was 0.004, the “τ/ns air (Lifetime)” value [2] was 69 ns and the “τ/ns degassed (Lifetime)” value [2] was 417 ns. For the same molecule, the “Singlet oxygen quantum yield, indirect 450 nm CH3CN” value [3] was 40%, the “Singlet oxygen quantum yield, indirect 450 nm PBS” value [3] was 2% and the “Singlet oxygen quantum yield, indirect 540 nm CH3CN” value [3] was 37%. The “Singlet oxygen quantum yield, indirect 540 nm PBS” value [3] was 3%, the “PI (480 nm)” value [4] was >11.8 and the “PI (540 nm)” value [4] was >9.4. The IC50 [4, 6] was > 100 µM, the IC50 [4, 7] was 8.5 ± 1.2 µM and the IC50 [4, 8] was 10.6 ± 2.2 µM. It also gave an IC50 [5] of 7.3 ± 1.4 µM.
With COc1ccc(/C=C/c2ccnc(-c3cc(/C=C/c4ccc(OC)cc4)ccn3)c2)cc1.COc1ccc(/C=C/c2ccnc(-c3cc(/C=C/c4ccc(OC)cc4)ccn3)c2)cc1.F[P-](F)(F)(F)(F)F.F[P-](F)(F)(F)(F)F.[Ru+2].c1ccc(-c2ccccn2)nc1 [Compound 5, [Ru(bipy)((E,E′)-4,4′-Bis[p-methoxystyryl]-2,2′-bipyridine)2][PF6]2] the “ϕem (Luminescence Quantum Yield)” value [1] was 0.014, the “τ/ns air (Lifetime)” value [2] was 36 ns and the “τ/ns degassed (Lifetime)” value [2] was 231 ns. For the same molecule, the “Singlet oxygen quantum yield, indirect 450 nm CH3CN” value [3] was 51%, the “Singlet oxygen quantum yield, indirect 450 nm PBS” value [3] was 8% and the “Singlet oxygen quantum yield, indirect 540 nm CH3CN” value [3] was 46%. For the same molecule, the “Singlet oxygen quantum yield, indirect 540 nm PBS” value [3] was 6%, the “PI (480 nm)” value [4] was >16.7 and the “PI (540 nm)” value [4] was >12.7. For the same molecule, the IC50 [4, 6] was > 100 µM, the IC50 [4, 7] was 6.4 ± 1.7 µM and the IC50 [4, 8] was 7.9 ± 1.3 µM. It also gave an IC50 [5] of 5.1 ± 1.1 µM.
For CN(C)c1ccc(/C=C/c2ccnc(-c3cc(/C=C/c4ccc(N(C)C)cc4)ccn3)c2)cc1.F[P-](F)(F)(F)(F)F.F[P-](F)(F)(F)(F)F.[Ru+2].c1ccc(-c2ccccn2)nc1.c1ccc(-c2ccccn2)nc1 [Compound 6, [Ru(bipy)2((E,E′)-4,4′-Bis[p-(N,N-dimethylamino)styryl]-2,2′-bipyridine)][PF6]2], the “ϕem (Luminescence Quantum Yield)” value [1] was 0.005, the “τ/ns air (Lifetime)” value [2] was 54 ns and the “τ/ns degassed (Lifetime)” value [2] was 405 ns. For the same molecule, the “Singlet oxygen quantum yield, indirect 450 nm CH3CN” value [3] was 53%, the “Singlet oxygen quantum yield, indirect 450 nm PBS” value [3] was 2% and the “Singlet oxygen quantum yield, indirect 540 nm CH3CN” value [3] was 38%. For the same molecule, the “Singlet oxygen quantum yield, indirect 540 nm PBS” value [3] was 2%, the “PI (480 nm)” value [4] was >18.9 and the “PI (540 nm)” value [4] was >17.2. The IC50 [4, 6] was > 100 µM, the IC50 [4, 7] was 5.3 ± 0.6 µM and the IC50 [4, 8] was 5.8 ± 0.9 µM. For the same molecule, the IC50 [5] was 2.4 ± 0.5 µM.
In the case of CN(C)c1ccc(/C=C/c2ccnc(-c3cc(/C=C/c4ccc(N(C)C)cc4)ccn3)c2)cc1.F[P-](F)(F)(F)(F)F.F[P-](F)(F)(F)(F)F.[Ru+2].c1cnc2c(c1)ccc1cccnc12.c1cnc2c(c1)ccc1cccnc12 [Compound 8, [Ru(phen)2((E,E′)-4,4′-Bis[p-(N,N-dimethylamino)styryl]-2,2′-bipyridine)][PF6]2], the “ϕem (Luminescence Quantum Yield)” value [1] is reported as 0.004, the “τ/ns air (Lifetime)” value [2] is reported as 136 ns and the “τ/ns degassed (Lifetime)” value [2] is reported as 334 ns. For the same molecule, the “Singlet oxygen quantum yield, indirect 450 nm CH3CN” value [3] was 62%, the “Singlet oxygen quantum yield, indirect 450 nm PBS” value [3] was 3% and the “Singlet oxygen quantum yield, indirect 540 nm CH3CN” value [3] was 57%. For the same molecule, the “Singlet oxygen quantum yield, indirect 540 nm PBS” value [3] was 2%, the “PI (480 nm)” value [4] was >7.9 and the “PI (540 nm)” value [4] was >8.8. The IC50 [4, 6] was > 100 µM, the IC50 [4, 7] was 12.6 ± 1.3 µM and the IC50 [4, 8] was 11.4 ± 1.5 µM. It also gave an IC50 [5] of 8.2 ± 1.1 µM.
